According to US20230372272A1, “USE OF CYSTINE AND DERIVATIVES THEREOF AS ANTI-THROMBOTIC AND THROMBOLYTIC AGENTS” (Georgia Tech Research Corporation, priority 2020, published 2023):

What was measured:
[1] = stroke patients, clinical trial; cited from earlier work
[2] = test system: fibrin clots from recalcified citrated whole blood; experiment: Red clot lysis under stagnant conditions, whole blood clots; type: cell-based, Porcine
Excerpt: (§1) Blood Collection: Porcine blood was collected at a local abattoir immediately following slaughter into 3.5 U/mL heparin (Thermo Fisher Scientific, Waltham, MA) or 3.2% sodium citrate (Sigma-Aldrich, St. Louis, MO). Whole blood was gently agitated using an Orbit LS shaker (Laboratory Supply Network, Atkinson, NH) until perfusion and used in experiments as soon as possible the same day as collection.
(§2) Red clot formation and lysis: Platelet rich plasma (PRP) was made by separating citrated whole blood via gravity over a 2 h period and collecting the supernatant. Separation via gravity was employed instead of centrifugation to avoid platelet damage and activation. Citrated whole blood or PRP was then recalcified with CaCl2 to a final [Ca^2+] of 10 mM (Griffin, M. T., Kim, D. & Ku, D. N. Shear-induced platelet aggregation: 3D-grayscale microfluidics for repeatable and localized occlusive thrombosis. Biomicrofluidics 13, 2019), and 200 μl was transferred into 500 μal centrifuge tubes and allowed to clot and retract for 30 min. The clot was then incubated with 100 μl of either agent or control solution. The treatment solution was exchanged by removing the top 100 μl and replacement with fresh solution at 3, 6, 12, 24, and 48 h of incubation. The weight of the tube was measured immediately post-clot formation and at each timepoint after removal of old solution and prior to the replacement with fresh solution.

[3] = test system: VWF- and platelet-rich white thrombi; experiment: Lysis of platelet-rich white thrombi in collagen-coated stenotic capillary tube under arterial shear (perfusion of lytic agents); type: cell-based, Porcine; conditions: 0.02 mg/ml, 60 min perfusion
Method: Collagen Coating: The stenotic glass test sections (inner diameter=1.5 mm) described herein were made by the Chemistry and Biochemistry Glass Shop at Georgia Institute of Technology. The % stenosis by diameter reduction ranged from 60% to 80%. Fibrillar equine collagen (type I; Chrono-Log Corporation, Havertown, PA) was diluted 9:1 in NaCl (Sigma-Aldrich, St. Louis, MO) and incubated in the test section at the stenosis for 24 h in a warm, moist environment (Para, A., Bark, D., Lin, A. & Ku, D. Rapid platelet accumulation leading to thrombotic occlusion. Ann Biomed Eng 39, 1961-1971, 2011; Para, A. N. & Ku, D. N. A low-volume, single pass in-vitro system of high shear thrombosis in a stenosis. Thromb Res 131, 418-424, 2013).
as §1
Syringe Perfusion: Lightly heparinized whole blood was perfused through the stenotic test section using a syringe pump. The flow rate was set so that the initial wall shear rate in the stenosis was 3,500 s^−1. A pressure transducer was connected in-line upstream of the stenosis (FIG. 2A). A dissecting microscope with a camera (PCO-Tech Incorporated, Romulus, MI) was used to capture images in real-time during perfusion. Blood perfusion continued until the upstream pressure increased by 30 mmHg (equivalent to an arterial pressure head in vivo) as a result of platelet thrombus formation in the stenotic section. Perfusion with a syringe pump (constant flow rate over constant pressure head) ensured that the thrombi were never fully occlusive, allowing subsequent perfusion for the induction of lysis.
Pharmacologic Agents: Recombinant human tPA (Sigma-Aldrich, St. Louis, MO), recombinant human ADAMTS-13 (MyBiosource, San Diego, CA), abciximab (ReoPro was kindly provided by Dr. Kevin Maher at Emory/CHOA), NAC (Thermo Fisher Scientific, Waltham, MA), and DiNAC (Cayman Chemical, Ann Arbor, Ml) or control (PBS) treatments were perfused for an hour at a flow rate of 1 ml/min. Agent solutions were made by dissolution or dilution in PBS. The in vitro flow system setup and image acquisition are shown in FIG. 2, and the concentrations of each agent are detailed in Table 2.
Real-time image capture (5 frames per second) of the stenosis continued throughout treatment perfusion.
Data Analysis: The thrombi surface area (which was colored green) was calculated using manual pixel counting in the open-source GNU Image Manipulation Program (GIMP, Version 2.10.8, 1995-2018). Surface area reduction was calculated by % pixel reduction versus the occlusion image. Analysis of variance (ANOVA) was used to test for statistical differences between groups, with the significance set at p<0.05.
In this example, a stenotic capillary tube model, which potentiates VWF- and platelet-rich white thrombi in an arterial setting on a collagen-coated stenosis was used (Para, A., Bark, D., Lin, A. & Ku, D. Rapid platelet accumulation leading to thrombotic occlusion. Ann Biomed Eng 39, 1961-1971, 2011; Ku, D. N. & Flannery, C. J. Development of a flow-through system to create occluding thrombus. Biorheology 44, 273-284, 2007; Para, A. N. & Ku, D. N. A low-volume, single pass in-vitro system of high shear thrombosis in a stenosis. Thromb Res 131, 418-424, 2013) to test lysis of 90% occlusive white thrombi (FIG. 2) and perfused low (2 mM) and high (20 mM) concentrations of NAC and DiNAC solutions. As illustrated in FIG. 2. DiNAC, but not NAC, achieved thrombolysis over 60 minutes of perfusion (FIG. 3A-3D). 2 mM and 20 mM DiNAC lysed most of the thrombi (>95%) within 14 min and 1.5 min, respectively (FIG. 3A-3B).

[4] = test system: FeCl3 injury-induced thrombus; set-up: dose or concentration left out as unconfirmed; conditions: after a 60 min treatment; FeCl3 injury in vivo; ADAMTS-13; cited from earlier work
[5] = clinical study; cited from earlier work
[6] = test system: fibrin clots from recalcified platelet rich plasma (PRP); experiment: Red clot lysis under stagnant conditions, PRP clots; type: cell-based, Porcine
Excerpt: as §1, §2

[7] = test system: platelet-rich thrombi from heparinized human whole blood; experiment: Example 4: thrombolysis of human blood thrombi in 3 mm collagen-coated stenotic capillary tubes; type: cell-based; conditions: perfusion, human whole blood thrombus
Method: In this example, an in-vitro randomized trial was performed using heparinized human blood in collagen-coated glass capillary tubes with a designed stenosis, mimicking arterial disease. Heparinized human blood was then infused through 3 mm capillary tubes at a constant flow rate, during which near-occlusive thrombi were formed at the region of stenosis (FIG. 11). DiNAC was then infused at a constant flow rate through the capillary tubes in order to observe thrombolytic activity, using a combination of live pressure monitoring and microscopic image capture. All infusions were control-matched with a phosphate-buffered saline solution in lieu of DiNAC.

tPA: Recombinant human tissue plasminogen activator, a serine protease converting plasminogen to plasmin
relative risk reduction versus the placebo [1]: 30% | clot dissolution front speed ([2]; fibrin clots, static conditions, over 48 h): ~3.5 μm/min | whole blood clot lysis over 48 h ([2]; whole blood clot, 48 h, DiNAC and NAC at 2 mM): large decrease in clot volume | clot weight reduction from baseline ([2]; whole blood clot, after 6 h): 26% | thrombus surface area reduction [3]: 23±4% | reduction of thrombus size [4]: 53.2% | recanalization rate [5]: less than 30% | PRP clot lysis over 48 h ([6]; 48 h, DiNAC and NAC at 2 mM): large decrease in clot volume | clot weight reduction from baseline ([6]; after 12 h): 36% | effect on clots and flow [7]: did not alter the clots or restore flow
